According to patent US9694040B2, “Hydrogenation of cannabis oil” (priority 2015, dated 2017):

Test system: U87 (Human glioblastoma)
Test: U87 glioblastoma subcutaneous xenograft tumor growth, excised tumor weight
Assay type: in vivo
Conditions: for effect on tumor weight versus untreated vehicle: female athymic mice with U87 implants, 10 mg/kg body weight fed, compared with Vehicle 73.8 mg; for Tumor weight: female athymic mice, subcutaneous U87 implants (two per mouse), fed 10 mg/kg body weight, tumors excised and weighed at termination (about one week of treatment), average of six tumors, Vehicle 73.8 mg
Protocol: The effect of the hydrogenated and non-hydrogenated cannabis oil on tumor growth and angiogenesis were evaluated by implanting U87 (Human glioblastoma) 3×10^6 cells (50% matrigel) in […] female athymic mice. The site of implantation was subcutaneous with two implants per mouse. The date of implantation was Feb. 1, 2016 and the date of administering treatment was Feburary 3, 2016. There were three mice in each of the following groups, and the treatment consisted of feeding each of the three mice 10 mg/kg body weight of the treatment corresponding to each one of the following groups: • 1. Untreated Vehicle • 2. THCA • 3. CBDA • 4. HCBDA • 5. HTHCA
The termination date was Feb. 11, 2016. On this date, the tumors were excised and weighed. The results are shown in Table 1 and illustrated in the below plot.
It was assumed that the excised tumor weight for the “Untreated Vehicle” was essentially equivalent to its starting tumor weight.

Compound: CCCCCc1cc2c(c(O)c1C(=O)O)[C@@H]1CC(C)CC[C@H]1C(C)(C)O2 (some centres unmarked) [HTHCA, hydrogenated 9-tetrahydrocannabinoic acid]
- effect on tumor weight versus untreated vehicle: effective to reduce tumor weight
- Tumor weight: 44.5 mg

Compound: CCCCCc1cc(O)c([C@@H]2CC(C)CC[C@H]2C(C)C)c(O)c1C(=O)O (some centres unmarked) [HCBDA, hydrogenated 9-cannabidioc acid]
- effect on tumor weight versus untreated vehicle: effective to reduce tumor weight
- Tumor weight: 32.6 mg

Compound: C=C(C)[C@@H]1CCC(C)=C[C@H]1c1c(O)cc(CCCCC)c(C(=O)O)c1O [CBDA, Δ-9-cannabidiolic acid]
- effect on tumor weight versus untreated vehicle: effective to reduce tumor weight
- Tumor weight: 39.1 mg

Compound: CCCCCc1cc2c(c(O)c1C(=O)O)[C@@H]1C=C(C)CC[C@H]1C(C)(C)O2 [THCA, Δ-9-tetrahydrocannabinoic acid]
- effect on tumor weight versus untreated vehicle: effective to reduce tumor weight
- Tumor weight: 46.0 mg
